Calls of active or inactive are those of the source. The rule behind the calls is not given here.
Columns and labels:
[1] = system: Mus musculus; assay: Analgesic activity in CD-1 mouse model of formalin-induced pain assessed as increase in latency to respond with hind paw lick or biting at 150 nmol/mouse, sc administered 15 mins prior to formalin injection measured up to 40 mins post dose; type: functional, organism-based
[2] = system: Mus musculus; assay: Antinociceptive activity in CD-1 mouse model of thermal-induced nociception assessed as increase in latency to respond with hind paw lick or jumping at 23 nmol/mouse, icv measured 45 mins post dose by hot plate test; type: functional
[3] = system: Mus musculus; assay: Antinociceptive activity in CD-1 mouse model of thermal-induced nociception assessed as increase in latency to tail withdrawal at 23 nmol/mouse, icv measured 45 mins post dose by tail flick test; type: functional
[4] = system: Mus musculus; assay: Antinociceptive activity in CD-1 mouse model of thermal-induced nociception assessed as increase in latency to respond with hind paw lick or jumping at 23 nmol/mouse, icv measured 15 to 60 mins post dose by hot plate test relative to control; type: functional
[5] = system: Mus musculus; assay: Antinociceptive activity in CD-1 mouse model of thermal-induced nociception assessed as increase in latency to tail withdrawal at 23 nmol/mouse, icv measured 15 to 60 mins post dose by tail flick test relative to control; type: functional

SMILES	Activity [1]	Activity [2]	Activity [3]	MPE [4] [%]	MPE [5] [%]
CC1(C)SSC(C)(C)[C@@H](NC(=O)[C@@H](N)Cc2ccc(O)cc2)C(=O)NCC(=O)N[C@@H](Cc2ccccc2)C(=O)N[C@H]1C(=O)O	inactive	Active	Active	–	–
CC1(C)SCc2cccc(c2)CSC(C)(C)[C@@H](NC(=O)[C@@H](N)Cc2ccc(O)cc2)C(=O)NCC(=O)N[C@@H](Cc2ccccc2)C(=O)N[C@H]1C(=O)O.O=C(O)C(F)(F)F	Active	–	–	>60	>60

Reference: ChEMBL document CHEMBL3992569, “Opioid Receptor Activity and Analgesic Potency of DPDPE Peptide Analogues Containing a Xylene Bridge” (ACS Med Chem Lett, 2017)
